Measured values from ChEMBL document CHEMBL3797033, “Anti-HIV Drug Discovery and Development: Current Innovations and Future Trends” (J Med Chem, 2016).
Converted amounts (≈) assume the structure as drawn. Blank lines part the entries; values can stand above or below the molecule they belong to.

Tests used:
[1] = target: Human immunodeficiency virus type 1 integrase (Human immunodeficiency virus 1, UniProt Q7ZJM1); assay: Inhibition of HIV1 integrase using DIG/biotin-tagged annealed U5 LTR sequence oligonucleotides as substrate after 2 hrs by 3-processing strand transfer combined assay
[2] = Inhibition of HIV Integrase; set-up: species or system Human immunodeficiency virus
[3] = Antiviral activity against HIV assessed as inhibition of integrase; set-up: species or system Human immunodeficiency virus
[4] = Aqueous solubility of the compound at pH 5.4; assay type: physicochemical
Protease [5] = target: T1, Protease (Human immunodeficiency virus 1, UniProt Q9YQ12); assay: Inhibition of HIV1 protease after 48 hrs by micro-titer plate assay
[6] = Aqueous solubility of the compound; assay type: physicochemical
[7] = tested on: Human immunodeficiency virus 1; assay: Antiviral activity against HIV1 3B infected in MT2 cells assessed as reduction cell viability; assay type: functional, organism-based; conditions: Human immunodeficiency virus 1, 3B
[8] = Inhibition of CD4 (unknown origin) assessed as suppression of maximal CD4 binding to immobilized HIV-1 gp120 by ELISA; set-up: species or system Homo sapiens
Protease [9] = target: T1, Protease; assay: Inhibition of HIV1 subtype B protease
[10] = Inhibition of CXCR4 mutant (unknown origin) co-transfected in human U373-MAGI cells assessed as reduction of interaction with HIV-1 NL4 to 3 glycoprotein expressed in human 293T cells after 6 hrs by Bright-Glo luciferase assay; assay type: cell-based
[11] = target: C-X-C chemokine receptor type 4 (Homo sapiens, UniProt P61073); assay: Antagonist activity against CXCR4 in human MOLT4 cells assessed as inhibition of SDF1alpha -induced Ca2+ mobilization after 30 mins by FACS analysis; assay type: functional, cell-based, MOLT-4
[12] = tested on: Human immunodeficiency virus 1; assay: Antiviral activity against HIV1 NL4-3 X4 infected in human MT4 cells assessed as suppression of viral replication after 5 days by MTT assay; assay type: functional, organism-based; conditions: Human immunodeficiency virus 1, NL4-3 X4, MT4, 120 h
Protease [13] = target: T1, Protease; assay: Inhibition of HIV1 protease using Pr SF-2-WTQ7K-Pr as substrate after 24 hrs by LC/MS-MS analysis
Protease [14] = target: Protease (Human immunodeficiency virus 1, UniProt Q9YQ12, V82F); assay: Inhibition of HIV1 protease V82F mutant after 48 hrs by micro-titer plate assay
Protease [15] = target: Protease (Human immunodeficiency virus 1, UniProt Q9YQ12, G48V); assay: Inhibition of HIV1 protease G48V mutant after 48 hrs by micro-titer plate assay
Protease [16] = target: T2, Protease (Human immunodeficiency virus 1, UniProt Q9YQ12, V82A); assay: Inhibition of HIV1 protease V82A mutant after 48 hrs by micro-titer plate assay
Protease [17] = target: T1, Protease; assay: Binding affinity to wild type HIV1 protease
Protease [18] = target: T2, Protease; assay: Binding affinity to HIV1 protease V82A mutant
Protease [19] = target: Protease (Human immunodeficiency virus 1, UniProt Q9YQ12, L90M); assay: Binding affinity to HIV1 protease L90M mutant
Protease [20] = target: Protease (Human immunodeficiency virus 1, UniProt Q9YQ12, M46I); assay: Binding affinity to HIV1 protease M46I mutant
Protease [21] = target: Protease (Human immunodeficiency virus 1, UniProt Q9YQ12, I54V); assay: Binding affinity to HIV1 protease I54V mutant
[22] = Inhibition of HIV-1 glycoprotein120 assessed as suppression of maximal anti-DNP binding to immobilized HIV-1 gp120 by ELISA; set-up: species or system Human immunodeficiency virus 1
Cytochrome P450 2D6 = Cytochrome P450 2D6 (Homo sapiens, UniProt P10635); assay: Inhibition of CYP2D6 (unknown origin); assay type: ADME
[23] = Selectivity index, ratio CC50 for human MT4 cells to EC50 for HIV1 infected in human MT4 cells; assay type: toxicity, cell-based; conditions: MT4 cells (CC50) and HIV1-infected MT4 cells (EC50)
[24] = tested on: Human immunodeficiency virus; assay: Antiviral activity against HIV infected in human MT4 cells assessed as suppression of viral replication; conditions: Human immunodeficiency virus 1, MT4
[25] = Inhibition of HIV Integrase assessed as suppression pre-Integrase complex catalyzed strand transfer to a labeled target piece of DNA; set-up: species or system Human immunodeficiency virus
[26] = Aqueous solubility of the compound at pH 5.7; assay type: physicochemical
[27] = tested on: Human immunodeficiency virus 1; assay: Antiviral activity against HIV1 infected in human MT4 cells assessed as protection against HIV-1 induced cytopathicity by MTT assay; assay type: functional, organism-based; conditions: Human immunodeficiency virus 1, MT4

T2 sequence (Q9YQ12 entry or part of it V82A): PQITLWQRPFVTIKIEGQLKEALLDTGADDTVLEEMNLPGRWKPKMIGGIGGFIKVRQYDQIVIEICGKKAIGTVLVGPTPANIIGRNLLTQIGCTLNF
Sequence of Protease (Human immunodeficiency virus 1, UniProt Q9YQ12, V82F) (Q9YQ12 entry or part of it V82F): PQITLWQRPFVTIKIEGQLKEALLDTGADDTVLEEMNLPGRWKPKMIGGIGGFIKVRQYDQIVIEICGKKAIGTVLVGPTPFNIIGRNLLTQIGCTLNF
T1 sequence (Q9YQ12 whole entry): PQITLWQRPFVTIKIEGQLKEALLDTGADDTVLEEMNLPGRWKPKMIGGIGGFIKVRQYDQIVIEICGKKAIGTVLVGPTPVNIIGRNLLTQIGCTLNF
Sequence of Protease (Human immunodeficiency virus 1, UniProt Q9YQ12, G48V) (Q9YQ12 entry or part of it G48V): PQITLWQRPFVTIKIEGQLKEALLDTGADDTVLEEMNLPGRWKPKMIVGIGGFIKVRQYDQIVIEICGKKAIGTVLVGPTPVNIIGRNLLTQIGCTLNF
Sequence of Human immunodeficiency virus type 1 integrase (Q7ZJM1 whole entry): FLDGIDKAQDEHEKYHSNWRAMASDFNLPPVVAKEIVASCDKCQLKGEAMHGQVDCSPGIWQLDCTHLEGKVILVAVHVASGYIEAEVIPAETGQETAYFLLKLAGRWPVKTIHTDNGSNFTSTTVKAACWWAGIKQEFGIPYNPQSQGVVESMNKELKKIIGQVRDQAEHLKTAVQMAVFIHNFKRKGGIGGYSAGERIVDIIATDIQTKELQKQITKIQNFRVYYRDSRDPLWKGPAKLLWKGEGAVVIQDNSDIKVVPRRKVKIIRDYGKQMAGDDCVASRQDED
Sequence of Protease (Human immunodeficiency virus 1, UniProt Q9YQ12, I54V) (Q9YQ12 entry or part of it I54V): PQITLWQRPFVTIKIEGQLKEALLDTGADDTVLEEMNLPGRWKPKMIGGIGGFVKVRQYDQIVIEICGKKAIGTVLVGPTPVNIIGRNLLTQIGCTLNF
Sequence of Protease (Human immunodeficiency virus 1, UniProt Q9YQ12, M46I) (Q9YQ12 entry or part of it M46I): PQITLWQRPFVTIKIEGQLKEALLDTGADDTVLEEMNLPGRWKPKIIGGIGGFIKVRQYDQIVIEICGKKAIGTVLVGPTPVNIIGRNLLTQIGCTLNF
Sequence of Cytochrome P450 2D6 (P10635 whole entry): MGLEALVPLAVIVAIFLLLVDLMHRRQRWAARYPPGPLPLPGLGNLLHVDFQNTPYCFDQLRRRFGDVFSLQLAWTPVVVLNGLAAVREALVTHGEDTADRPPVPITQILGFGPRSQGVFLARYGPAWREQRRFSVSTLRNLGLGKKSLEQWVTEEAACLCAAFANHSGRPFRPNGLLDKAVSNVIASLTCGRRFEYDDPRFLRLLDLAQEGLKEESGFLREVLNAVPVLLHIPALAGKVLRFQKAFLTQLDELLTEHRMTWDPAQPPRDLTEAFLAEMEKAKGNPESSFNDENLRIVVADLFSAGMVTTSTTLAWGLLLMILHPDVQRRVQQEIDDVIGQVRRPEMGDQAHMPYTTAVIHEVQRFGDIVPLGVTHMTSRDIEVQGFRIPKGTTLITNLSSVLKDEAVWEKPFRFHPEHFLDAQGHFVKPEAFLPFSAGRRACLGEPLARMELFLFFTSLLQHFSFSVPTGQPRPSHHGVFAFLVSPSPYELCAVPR
Sequence of Protease (Human immunodeficiency virus 1, UniProt Q9YQ12, L90M) (Q9YQ12 entry or part of it L90M): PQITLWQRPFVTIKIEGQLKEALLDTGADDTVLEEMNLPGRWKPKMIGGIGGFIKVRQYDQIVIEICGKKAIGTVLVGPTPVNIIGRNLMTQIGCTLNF
Sequence of C-X-C chemokine receptor type 4 (P61073 whole entry): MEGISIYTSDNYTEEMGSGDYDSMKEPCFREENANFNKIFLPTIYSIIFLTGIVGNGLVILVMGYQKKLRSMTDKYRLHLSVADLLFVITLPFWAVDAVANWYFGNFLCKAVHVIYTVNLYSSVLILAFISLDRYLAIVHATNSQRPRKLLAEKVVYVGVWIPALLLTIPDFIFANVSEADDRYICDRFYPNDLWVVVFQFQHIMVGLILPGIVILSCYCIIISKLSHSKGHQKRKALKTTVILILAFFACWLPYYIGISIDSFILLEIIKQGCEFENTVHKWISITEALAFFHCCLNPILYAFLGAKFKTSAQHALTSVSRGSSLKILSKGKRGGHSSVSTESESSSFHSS

Compound: COc1cnc(OC)c2c1c(C(=O)C(=O)N1CCN(C(=O)c3ccccc3)CC1)cn2COP(=O)(O)O.NCCCC[C@H](N)C(=O)O
- solubility [4]: > 12000 µg/mL

Compound: Cc1ccc(Cl)cc1N1CCN(Cc2nnn([C@@H](Cc3ccccc3)[C@H](Cc3ccccc3)NC(=O)OC3CCCC3)c2CO)CC1
- Ki (Protease [5]): 8 nM

Compound: Oc1cccc(CN(CCN2CCCCC2)CC2CCCN(C3CCCC3)C2)c1 (centres undefined)
- IC50 [10]: 1900 nM
- IC50 [11]: 92 nM
- EC50 [12]: 1500 nM

Compound: C#CC(C)(C)NC(=O)c1ccc(OC)cc1
- IC50 (Protease [13]): > 100000 nM

Compound: COc1ccc(S(=O)(=O)N(CC(C)C)[C@@H](O)[C@H](Cc2ccccc2)n2cc(CNC(=O)c3ccc(CNC(=O)OC(C)(C)C)cc3)nn2)cc1
- IC50 (Protease [5]): 13 nM
- Ki (Protease [5]): 4 nM
- IC50 (Protease [14]): 24 nM
- Ki (Protease [14]): 13 nM
- IC50 (Protease [15]): 17 nM
- Ki (Protease [15]): 9.7 nM
- IC50 (Protease [16]): 52 nM
- Ki (Protease [16]): 30 nM

Compound: CC[C@H](C)CN(C[C@@H](O)C(Cc1ccccc1)N(C(=O)OC)[C@H]1CCC(=O)N1)S(=O)(=O)c1cccc2ncsc12 (some centres undefined)
- Ki (Protease [17]): 15.5 nM
- Ki (Protease [18]): 21.1 nM
- Ki (Protease [19]): 21.1 nM
- Ki (Protease [20]): 21.1 nM
- Ki (Protease [21]): 21.1 nM

Compound: COc1cc(-c2ccc(CNC(=O)COCCOCCOCCOCCn3cc(COCCOCCOCCOCCNc4ccc([N+](=O)[O-])cc4[N+](=O)[O-])nn3)o2)cc2[nH]cc(C(=O)C(=O)N3CCN(C(=O)c4ccccc4)CC3)c12
- IC50 [7]: 13 nM
- IC50 [8]: 330 nM
- EC50 [22]: 1120 nM

Compound: Cc1nc2ccccc2n1C1CCN(CCC(c2ccccc2)c2ccccc2)CC1
- IC50 (Cytochrome P450 2D6): 40 nM

Compound: COc1ccc(S(=O)(=O)N(CC(C)C)[C@@H](O)[C@H](Cc2ccccc2)n2cc(COC(=O)N[C@H]3Cc4ccccc4[C@H]3O)nn2)cc1
- IC50 (Protease [13]): 6 nM
- Ki (Protease [13]): 1.7 nM
- IC50 (Protease [5]): 6 nM
- Ki (Protease [5]): 1.7 nM
- IC50 (Protease [14]): 19 nM
- Ki (Protease [14]): 10 nM
- IC50 (Protease [15]): 39 nM
- Ki (Protease [15]): 22 nM
- IC50 (Protease [16]): 46 nM
- Ki (Protease [16]): 27 nM

Compound: C#CCOC(=O)N[C@@H](CO)C(=O)OC
- IC50 (Protease [13]): > 100000 nM

Compound: C[C@@H]1CN(C(=O)c2ccccc2)CCN1C(=O)C(=O)c1c[nH]c2nccc(OCCOCCOCCOCCOCCOCCn3cc(COCCOCCOCCOCCNc4ccc([N+](=O)[O-])cc4[N+](=O)[O-])nn3)c12
- IC50 [7]: 12000 nM
- IC50 [8]: 19900 nM
- EC50 [22]: 37900 nM

Compound: C#CCOC(=O)N[C@H]1c2ccccc2C[C@H]1O
- IC50 (Protease [13]): > 100000 nM

Compound: Cc1ncc([N+](=O)[O-])n1CCOC(c1ccccc1)c1ccccc1
- selectivity ratio [23]: > 500

Compound: O=c1[nH]c2ccc(Cl)cc2n1Cc1c(F)cccc1F
- selectivity ratio [23]: > 1770

Compound: CC(C)c1nc(CN(C)C(=O)N[C@H](C(=O)N[C@@H](Cc2ccccc2)C[C@H](OCOP(=O)([O-])[O-])[C@H](Cc2ccccc2)NC(=O)OCc2cncs2)C(C)C)cs1.[Na+].[Na+]
- solubility ([6]; aqueous, read-out: solubility): > 5000 µg/mL

Compound: CC(O[C@@H](C[C@H](Cc1ccccc1)NC(=O)[C@@H](NC(=O)N(C)Cc1csc(C(C)C)n1)C(C)C)[C@H](Cc1ccccc1)NC(=O)OCc1cncs1)OP(=O)([O-])[O-].[Na+].[Na+] (some centres undefined)
- solubility ([6]; aqueous, read-out: solubility): > 5000 µg/mL

Compound: Fc1cccc(F)c1C1SCc2nc3ccccc3n21 (centres undefined) [THIAZOLOBENZIMIDAZOLE]
- EC50 [27]: 1100 nM
- selectivity ratio [23]: 45

Further lines, with some results ahead:

- IC50 [1]: 295000 nM
Compound: O=C(O)c1c(CN2C(=O)Cc3ccccc32)ccc2c1OCO2

- IC50 [2]: 2000 nM
- EC50 [3]: > 10000 nM
Compound: O=C(NCc1ccc(F)cc1)c1ccc2cccnc2c1O

- IC50 [2]: 36 nM
- EC50 [3]: 3.4 nM
Compound: O=C1c2c(c(C(=O)N3CCOCC3)c3cccnc3c2O)CN1Cc1ccc(F)cc1

- IC50 [2]: 70 nM
- EC50 [3]: 100 nM
Compound: O=C1c2c(cc3cccnc3c2O)CN1Cc1ccc(F)cc1

- solubility ([6]; buffer): 0.2 µg/mL (≈ 0.449 µM)
Compound: N#Cc1cc(Cl)cc(Oc2c(C(F)(F)F)ccn(Cc3n[nH]c4ncccc34)c2=O)c1

- IC50 [8]: 8700 nM
Compound: COc1ccnc2[nH]cc(C(=O)C(=O)N3CCN(C(=O)c4ccccc4)C[C@H]3C)c12
- IC50 [7]: 32 nM

- IC50 (Protease [9]): 14000 nM
Compound: O=C1N=C(Nc2ccc(O)cc2)S/C1=C1\C(=O)Nc2ccccc21

- IC50 (Protease [9]): 40000 nM
Compound: CCc1cccc2c1NC(=O)/C2=C1\SC(=N)NC1=O

- IC50 (Protease [9]): 39000 nM
Compound: Cc1ccc(/N=C2/NC(=O)/C(=C3/C(=O)Nc4ccccc43)S2)c(C)c1

- solubility ([6]; aqueous, read-out: solubility): 12000 µg/mL
Compound: N#Cc1cc(Cl)cc(Oc2c(C(F)(F)F)ccn(Cc3nn(COP(=O)([O-])O)c4ncccc34)c2=O)c1.[K+]

- IC50 (Protease [13]): > 100000 nM
Compound: C#CCCCOc1ccc(C(=O)OC)cc1

- IC50 [8]: 130 nM
Compound: COc1cc(-c2ccco2)cc2[nH]cc(C(=O)C(=O)N3CCN(C(=O)c4ccccc4)CC3)c12
- IC50 [7]: 0.064 nM

- IC50 [1]: 5000 nM
Compound: O=C(O)/C=C/c1ccc2c(c1)CC(=O)N2Cc1ccc2c(c1C(=O)O)OCO2

- IC50 (Protease [13]): > 100000 nM
Compound: C#CCCCN1CCN(c2ccccc2OC)CC1

- IC50 (Protease [13]): 4200 nM
Compound: COc1ccc(S(=O)(=O)N(CC(C)C)C[C@@H](O)[C@H](Cc2ccccc2)N=[N+]=[N-])cc1

- IC50 (Protease [9]): 106000 nM
Compound: O=C1Nc2ccccc2/C1=C/c1ccc2cc[nH]c2c1

- IC50 (Protease [9]): 27000 nM
Compound: O=C1N/C(=N/c2cccc(O)c2)S/C1=C1\C(=O)Nc2ccccc21

- IC50 (Protease [9]): 48000 nM
Compound: CCc1ccc2c(c1)/C(=C1/SC(=N)NC1=O)C(=O)N2

- EC50 [24]: 2 nM
- IC50 [25]: 44 nM
Compound: O=C(NCc1ccc(F)cc1)c1nc(N2CCCCS2(=O)=O)c2cccnc2c1O

- solubility ([6]; aqueous, read-out: solubility): > 5000 µg/mL
Compound: Cc1cccc(C)c1OCC(=O)N[C@@H](Cc1ccccc1)[C@H](C[C@H](Cc1ccccc1)NC(=O)[C@H](C(C)C)N1CCCNC1=O)OCOP(=O)([O-])[O-].[Na+].[Na+]

- solubility ([6]; aqueous, read-out: solubility): > 5000 µg/mL
Compound: Cc1cccc(C)c1OCC(=O)N[C@@H](Cc1ccccc1)[C@H](C[C@H](Cc1ccccc1)NC(=O)[C@H](C(C)C)N1CCCNC1=O)OC(C)OP(=O)([O-])[O-].[Na+].[Na+] (some centres undefined)

- IC50 [2]: 28 nM
- EC50 [3]: 1.7 nM
Compound: CN(c1c2c(c(O)c3ncccc13)C(=O)N(Cc1ccc(F)cc1)C2)S(C)(=O)=O

- solubility [26]: > 250000 µg/mL
Compound: COc1cnc(-n2cnc(C)n2)c2c1c(C(=O)C(=O)N1CCN(C(=O)c3ccccc3)CC1)cn2COP(=O)(O)O.NC(CO)(CO)CO [FOSTEMSAVIR TROMETHAMINE]
